Like-named read-outs stand apart in the source and are kept apart here.
Columns and labels:
FPRL1 = biological target: T1, FPRL1 (Homo sapiens, UniProt P25090); assay: compound-induced calcium activity on FLIPR Tetra in CHO-Gal6 cells stably expressing FPRL1; format: cell-based; conditions: for FPRL1 (rel. eff.): relative efficacy
T1 construct: expressed in transfected cells; host or cells: CHO-Gal6 (CHO cells with G alpha 16)
T1 sequence (P25090 1-351): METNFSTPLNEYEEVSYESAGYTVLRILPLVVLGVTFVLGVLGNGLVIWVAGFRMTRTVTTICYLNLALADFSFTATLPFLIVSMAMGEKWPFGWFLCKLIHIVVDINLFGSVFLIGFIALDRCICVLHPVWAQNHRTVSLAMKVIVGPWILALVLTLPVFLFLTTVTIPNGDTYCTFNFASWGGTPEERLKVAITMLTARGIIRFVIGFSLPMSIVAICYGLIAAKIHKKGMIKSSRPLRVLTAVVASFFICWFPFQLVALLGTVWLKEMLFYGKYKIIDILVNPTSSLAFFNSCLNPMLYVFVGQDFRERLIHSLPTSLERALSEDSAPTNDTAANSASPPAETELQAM
Description: (§1) CHO-Gal6 cells stably expressing FPRL1 were cultured in (F12, 10% FBS, 1% PSA, 400 μg/ml geneticin and 50 μg/ml hygromycin) and HEK-Gqi5 cells stable expressing FPR1 were cultured in (DMEM high glucose, 10% FBS, 1% PSA, 400 μg/ml geneticin and 50 μg/ml hygromycin). In general, the day before the experiment, 18,000 cells/well were plated in a 384-well clear bottom poly-d-lysine coated plate. The following day the screening compound-induced calcium activity was assayed on the FLIPR^Tetra. The drug plates were prepared in 384-well microplates using the EP3 and the MultiPROBE robotic liquid handling systems. Compounds were tested at concentrations ranging from 0.61 to 10,000 nM. Results are expressed as EC50 (nM) and efficacy values.

FPR1 = biological target: T2, FPR1 (Homo sapiens, UniProt P21462); assay: compound-induced calcium activity on FLIPR Tetra in HEK-Gqi5 cells stable expressing FPR1; format: cell-based; parameters: FPR1 (rel. eff.): scale not given here; conditions: for FPR1 (rel. eff.): relative efficacy
T2 construct: expressed in transfected cells; host or cells: HEK-Gqi5 (HEK cells with chimeric G protein Gqi5)
T2 sequence (P21462 1-350): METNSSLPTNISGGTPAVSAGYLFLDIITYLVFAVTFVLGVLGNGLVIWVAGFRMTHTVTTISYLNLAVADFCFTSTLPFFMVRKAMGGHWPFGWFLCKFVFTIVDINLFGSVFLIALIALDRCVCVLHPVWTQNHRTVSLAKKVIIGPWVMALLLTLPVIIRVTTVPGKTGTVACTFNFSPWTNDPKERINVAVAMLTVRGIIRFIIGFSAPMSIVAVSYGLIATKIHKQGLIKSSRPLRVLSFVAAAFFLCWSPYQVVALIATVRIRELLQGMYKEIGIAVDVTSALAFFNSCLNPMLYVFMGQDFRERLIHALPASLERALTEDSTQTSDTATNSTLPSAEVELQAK
Description: as §1

[1] = calcium, FLIPR Tetra, tested 0.61 to 10,000 nM, read-out: FPRL1 EC50
[2] = class symbol NA, read-out: FPR1 EC50 (NA = Not Active)
[3] = calcium, FLIPR Tetra, tested 0.61 to 10,000 nM, read-out: FPR1 EC50

Compound: O=C(O)C1C(C(=O)Nc2ccc(SC(F)(F)F)cc2)C2C=CC1C21CC1 (racemic) [Compound 4, (+/−)-(1S,4R,5S,6R)-6-(4-(Trifluoromethylthio)phenylcarbamoyl)Spiro[bicyclo[2.2.1]hept[2]ene-7,1′-cyclopropane]-5-carboxylic Acid]
- EC50 (FPRL1; [1]): 709 nM
- FPRL1 (rel. eff.) (FPRL1; calcium, FLIPR Tetra): 0.84
- EC50 (FPR1; [2]): > 10000 nM

Compound: CC(C)(C)c1ccc(NC(=O)C2C(C(=O)O)C3C=CC2C32CC2)cc1 (racemic) [Compound 5, (+/−)-(1R,4S,5R,6S)-5-(4-tert-Butylphenylcarbamoyl)spiro[bicyclo[2.2.1]hept[2]ene-7,1′-cyclopropane]-6-carboxylic Acid]
- EC50 (FPRL1; class symbol NA, read-out: FPRL1 EC50 (NA = Not Active)): > 10000 nM
- EC50 (FPR1; [2]): > 10000 nM

Compound: CC(C)c1ccc(NC(=O)C2C(C(=O)O)C3C=CC2C32CC2)cc1 (racemic) [Compound 6, (+/−)-(1S,4R,5S,6R)-6-(4-Isopropylphenylcarbamoyl)spiro[bicyclo[2.2.1]hept[2]ene-7,1′-cyclopropane]-5-carboxylic Acid]
- FPRL1 (rel. eff.) (FPRL1; calcium, FLIPR Tetra): ND (0.39)
- EC50 (FPR1; [2]): > 10000 nM

Compound: O=C(O)C1C(C(=O)Nc2ccccc2)C2C=CC1C21CC1 (racemic) [Compound 7, (+/−)-(1S,4R,5S,6R)-6-(Phenylcarbamoyl)spiro[bicycle[2.2.1]hept[2]ene-7,1′cyclopropane]-5-carboxylic Acid]
- FPRL1 (rel. eff.) (FPRL1; calcium, FLIPR Tetra): ND (0.33)
- EC50 (FPR1; [2]): > 10000 nM

Compound: NS(=O)(=O)c1ccc(NC(=O)C2C(C(=O)O)C3C=CC2C32CC2)cc1 (racemic) [Compound 8, (+/−)-(1S,4R,5S,6R)-6-(4-Sulfamoylphenylcarbamoyl)spiro[bicyclo[2.2.1]hept[2]ene-7,1′-cyclopropane]-5-carboxylic Acid]
- EC50 (FPRL1; [1]): 2710 nM
- FPRL1 (rel. eff.) (FPRL1; calcium, FLIPR Tetra): 0.51
- EC50 (FPR1; [2]): > 10000 nM

Compound: O=C(O)[C@@H]1[C@H](C(=O)Nc2ccc(I)cc2)[C@@H]2CC[C@H]1C21CC1 (racemic) [Compound 9, (+/−)-(1R,2S,3R,4S)-3-(4-Iodophenylcarbamoyl)spiro[bicyclo[2.2.1]heptane-7,1′-cyclopropane]-2-carboxylic Acid]
- EC50 (FPRL1; [1]): 1 nM
- FPRL1 (rel. eff.) (FPRL1; calcium, FLIPR Tetra): 0.80
- EC50 (FPR1; [3]): 269 nM
- FPR1 (rel. eff.) (FPR1; calcium, FLIPR Tetra): 0.73

Compound: O=C(O)C1C(C(=O)Nc2ccc(Br)cc2)C2CCC1C21CC1 (racemic) [Compound 10A]
- EC50 (FPRL1; [1]): 278 nM
- FPRL1 (rel. eff.) (FPRL1; calcium, FLIPR Tetra): 0.82
- EC50 (FPR1; [2]): > 10000 nM

Compound: O=C(O)[C@@H]1[C@H](C(=O)Nc2ccc(Cl)cc2)[C@@H]2CC[C@H]1C21CC1 (racemic) [Compound 11, (+/−)-(1R,2S,3R,4S)-3-(4-Chlorophenylcarbamoyl)spiro[bicyclo[2.2.1]heptane-7,1′-cyclopropane]-2-carboxylic Acid]
- EC50 (FPRL1; [1]): 43 nM
- FPRL1 (rel. eff.) (FPRL1; calcium, FLIPR Tetra): 0.86

Compound: CC1(C)[C@@H]2CC[C@H]1[C@@H](C(=O)Nc1ccc(I)cc1)[C@H]2C(=O)O (racemic) [Compound 12, (+/−)-(1R,2S,3R,4S)-3-(4-Iodophenylcarbamoyl)-7,7-dimethylbicyclo[2.2.1]heptane-2-carboxylic Acid]
- EC50 (FPR1; [3]): 343 nM
- FPR1 (rel. eff.) (FPR1; calcium, FLIPR Tetra): 68

Compound: CC1(C)[C@@H]2CC[C@H]1[C@@H](C(=O)Nc1ccc(Br)cc1)[C@H]2C(=O)O (racemic) [Compound 13, (+/−)-(1R,2S,3R,4S)-3-(4-Bromophenylcarbamoyl)-7,7-dimethylbicyclo[2.2.1]heptane-2-carboxylic Acid]
- FPRL1 (rel. eff.) (FPRL1; calcium, FLIPR Tetra): 0.85
- EC50 (FPR1; [3]): 639 nM
- FPR1 (rel. eff.) (FPR1; calcium, FLIPR Tetra): 0.33

Compound: COC(=O)C1C(C(=O)Nc2ccc(I)cc2)C2C=CC1C21CC1 (racemic) [Compound 16, Methyl(+/−)-(1S,4R,5S,6R)-6-(4-Iodophenylcarbamoyl)spiro[bicyclo[2.2.1]hept[2]ene-7,1′-cyclopropane]-5-carboxylate]
- EC50 (FPRL1; [1]): 403 nM
- FPRL1 (rel. eff.) (FPRL1; calcium, FLIPR Tetra): 0.72

Compound: CC(C)=C1C2C=CC1C(C(=O)Nc1ccc(I)cc1)C2C(=O)O (racemic) [Compound 22, (+/−)-(1S,4R,5S,6R)-6-(4-Iodophenylcarbamoyl)[bicyclo[2.2.1]hept[2]ene-7-propan-2-ylidene]-5-carboxylic Acid]
- EC50 (FPR1; [3]): 8030 nM
- FPR1 (rel. eff.) (FPR1; calcium, FLIPR Tetra): 62

Compound: COc1ccccc1NC(=O)C1C(C(=O)O)C2C=CC1C21CC1 (racemic) [Compound 29, (+/−)-(1S,4R,5S,6R)-6-((2-Methoxyphenyl)carbamoyl)spiro[bicyclo[2.2.1]hept[2]ene-7,1′-cyclopropane]-5-carboxylic Acid]
- EC50 (FPRL1; [1]): 3170 nM
- FPRL1 (rel. eff.) (FPRL1; calcium, FLIPR Tetra): 1.1

Compound: N#Cc1ccc(-c2ccc(NC(=O)C3C(C(=O)O)C4C=CC3C43CC3)cc2)cc1 (racemic) [Compound 30, (+/−)-(1S,4R,5S,6R)-6-((4′-Cyano-[1,1′-biphenyl]-4-yl)carbamoyl)spiro[bicyclo-[2.2.1]hept[2]ene-7,1′-cyclopropane]-5-carboxylic Acid]
- EC50 (FPRL1; [1]): 2880 nM
- FPRL1 (rel. eff.) (FPRL1; calcium, FLIPR Tetra): 0.97

Compound: O=C(O)C1C(C(=O)Nc2cccc(C(F)(F)F)c2)C2CCC1C21CC1 (racemic) [Compound 37, (+/−)-(1R,2S,3R,4S)-3-β3-(Trifluoromethyl)phenyl)carbamoyl)spiro[bicyclo-[2.2.1]heptane-7,1′-cyclopropane]-2-carboxylic Acid]
- EC50 (FPRL1; [1]): 978 nM
- FPRL1 (rel. eff.) (FPRL1; calcium, FLIPR Tetra): 0.86

Compound: O=C(O)[C@@H]1[C@H](C(=O)Nc2ccc(Cl)c(Cl)c2)[C@@H]2CC[C@H]1C21CC1 (racemic) [Compound 38, (+/−)-(1R,2S,3R,4S)-3-((3,4-Dichlorophenyl)carbamoyl)spiro[bicyclo[2.2.1]heptane-7,1′-cyclopropane]-2-carboxylic Acid]
- EC50 (FPRL1; [1]): 498 nM
- FPRL1 (rel. eff.) (FPRL1; calcium, FLIPR Tetra): 1.00

Compound: COc1ccccc1NC(=O)[C@H]1[C@@H](C(=O)O)[C@H]2CC[C@@H]1C21CC1 (racemic) [Compound 39, (+/−)-(1R,2S,3R,4S)-3-((2-Methoxyphenyl)carbamoyl)spiro[bicyclo[2.2.1]heptane-7,1′-cyclopropane]-2-carboxylic Acid]
- EC50 (FPRL1; [1]): > 3000 nM
- FPRL1 (rel. eff.) (FPRL1; calcium, FLIPR Tetra): 1.2

Compound: NC(=O)C1C(C(=O)Nc2ccc(Br)cc2)C2C=CC1C21CC1 (racemic) [Compound 47, (+/−)-(1R,4S,5R,6S)—N-5-(4-Bromophenyl)spiro[bicyclo[2.2.1]hept[2]ene-7,1′-cyclopropane]-5,6-dicarboxamide]
- EC50 (FPR1; [2]): > 10000 nM

Compound: CC1(C)[C@@H]2CC[C@H]1[C@@H](C(=O)Nc1ccc(Br)cc1)[C@H]2C(N)=O (racemic) [Compound 54, (+/−)-(1S,2R,3S,4R)—N2-(4-Bromophenyl)-7,7-dimethylbicyclo[2.2.1]heptane-2,3-dicarboxamide]
- EC50 (FPR1; [2]): > 10000 nM

Compound: CN(C)C(=O)C1C(C(=O)Nc2ccc(Br)cc2)C2C=CC1C21CC1 (racemic) [Compound 76, (+/−)-(1S,4S,5R,6S)—N^5-(4-Bromophenyl)-N^6,N^6-dimethylspiro[bicyclo[2.2.1]hept[2]ene]-7,1′-cyclopropane]-5,6-dicarboxamide]
- EC50 (FPRL1; [1]): 3720 nM
- FPRL1 (rel. eff.) (FPRL1; calcium, FLIPR Tetra): 0.5

Compound: COC(=O)C1C(C(=O)Nc2ccc(Br)cc2)C2CCC1C21CC1 (racemic) [Compound 83, (+/−)-(1S,4S,5R,6S)-Methyl 2-((4-bromophenyl)carbamoyl)spiro[bicyclo[2.2.1]heptane-7,1′-cyclopropane]-3-carboxylate]
- EC50 (FPRL1; [1]): 1680 nM
- FPRL1 (rel. eff.) (FPRL1; calcium, FLIPR Tetra): 0.68

Compound: CCOC(=O)[C@@H]1[C@H](C(=O)Nc2ccc(Br)cc2)[C@@H]2CC[C@H]1C21CC1 (racemic) [Compound 84, (+/−)-(1S,2R,3S,4R)-Ethyl 2-((4-bromophenyl)carbamoyl)spiro[bicyclo[2.2.1]heptane-7,1′-cyclopropane]-3-carboxylate]
- EC50 (FPRL1; [1]): 1370 nM
- FPRL1 (rel. eff.) (FPRL1; calcium, FLIPR Tetra): 0.74

Compound: O=C1[C@@H]2[C@H](C(=O)N1c1ccc(Br)cc1)[C@@H]1CC[C@H]2C12CC2 [Compound 90, (3aR,4S,7R,7aS)-2-(4-Bromophenyl)-hexahydro-1H-spiro[4,7-methanoisoindole-8,1′-cyclopropane]-1,3(2H)-dione]
- EC50 (FPRL1; [1]): 6560 nM
- FPRL1 (rel. eff.) (FPRL1; calcium, FLIPR Tetra): 0.38

Compound: (+/−)-(1R,2S,3R,4S)-3-((4-(Methylsulfonyl)phenyl)carbamoyl)spiro[bicyclo[2.2.1]-heptane-7,1′-cyclopropane]-2-carboxylic Acid [Compound 71]
- EC50 (FPR1; [2]): > 10000 nM

— patent US8618163B2, “Derivatives of cycloalkyl- and cycloalkenyl-1,2-dicarboxylic acid compounds having formyl peptide receptor like-1 (FPRL-1) agonist or antagonist activity” (Allergan, Inc., priority 2010, dated 2013)
